According to US20040043498A1, “Reagent for determining singlet oxygen” (priority 2003, published 2004):

Experiment: Light stability of DMAX-EP (photobleaching under continuous excitation light)
Format: physicochemical
Settings: 0.1 M phosphate buffer pH 7.4, 0.1% DMSO, 37° C.
Description: 5.0 μM aqueous solutions of DMAX-EP (endoperoxide of Compound 11 in the above scheme) and DPAX-1-EP (endoperoxide of Compound 13 described in International Patent Publication WO99/51586, Example 1) [0.1 M phosphate buffer (pH 7.4) containing 0.1% DMSO as a cosolvent] were each placed in a fluorescent cell and exposed to an excitation light of 491 nm at 37° C. with stirring, and fluorescence was measured at 620 nm by using a fluorometer while the solution was continuously exposed to the excitation light.

Photobleaching relative to DPAX-1-EP (5.0 μM aqueous solution, excitation 491 nm, fluorescence at 620 nm): 5.4 times slower
Light stability (5.0 μM, continuous 491 nm excitation): excellent light stability
Substance: DMAX-EP
